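96-well plates; 48 h exposure; 5 concentrations. Endpoints by linear interpolation between flanking doses. Not reached: highest tested concentration assigned. The concentration for 50% growth inhibition is given as GI50. The concentration for full growth arrest is given as TGI.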
Legend:
Test in all cases: growth of human tumour cells (NCI), 48 h
[1] = system: HL-60(TB) leukemia
[2] = system: A549 NSCLC
[3] = system: HT29 colon
[4] = system: SW-620 colon
[5] = system: NCI-H460 lung
[6] = system: NCI-H23 lung
[7] = system: TK-10 renal
[8] = system: OVCAR-5 ovarian
[9] = system: OVCAR-3 ovarian
[10] = system: SK-MEL-28 melanoma
[11] = system: SF-268 CNS
[12] = system: SNB-19 CNS
[13] = system: HCT-15 colon
[14] = system: SR leukemia
[15] = system: NCI-H226 lung
[16] = system: HOP-92 NSCLC
[17] = system: A498 renal
[18] = system: UACC-62 melanoma
[19] = system: BT-549 breast
[20] = system: CCRF-CEM leukemia
[21] = system: SF-539 CNS
[22] = system: RPMI-8226 leukemia
[23] = system: K-562 leukemia
[24] = system: IGROV1 ovarian
[25] = system: SNB-75 CNS
[26] = system: M14 melanoma
[27] = system: 786-0 renal
[28] = system: CAKI-1 renal
[29] = system: UO-31 renal
[30] = system: SK-OV-3 ovarian
[31] = system: LOX IMVI melanoma
[32] = system: PC-3 prostate
[33] = system: OVCAR-4 ovarian
[34] = system: U251 CNS
[35] = system: ACHN renal
[36] = system: KM12 colon
[37] = system: EKVX NSCLC
[38] = system: OVCAR-8 ovarian
[39] = system: HCC-2998 colon
[40] = system: NCI/ADR-RES ovarian
[41] = system: MOLT-4 leukemia
[42] = system: RXF 393 renal
[43] = system: SN12C renal
[44] = system: HS 578T breast
[45] = system: SK-MEL-5 melanoma
[46] = system: MCF7 breast
[47] = system: UACC-257 melanoma
[48] = system: DU-145 prostate
[49] = system: T-47D breast
[50] = system: COLO 205 colon
[51] = system: SK-MEL-2 melanoma
[52] = system: NCI-H522 lung
[53] = system: MALME-3M melanoma
[54] = system: HCT-116 colon

In the case of `Cc1cc(Br)c(N2C3=C(CC4=C2CCCC4=O)C(=O)CCC3)c(Br)c1`, the TGI [1] is reported as > 100 µM, the TGI [2] is reported as > 100 µM and the TGI [3] is reported as > 100 µM. For the same molecule, the TGI [4] was > 100 µM, the TGI [5] was > 100 µM and the TGI [6] was > 100 µM. For the same molecule, the TGI [7] was > 100 µM, the TGI [8] was > 100 µM and the TGI [9] was > 100 µM. The TGI [10] was > 100 µM, the TGI [11] was > 100 µM and the TGI [12] was > 100 µM. The TGI [13] was > 100 µM, the TGI [14] was > 100 µM and the TGI [15] was > 100 µM. The TGI [16] was 94.3 µM, the TGI [17] was > 100 µM and the TGI [18] was > 100 µM. The TGI [19] was > 100 µM, the TGI [20] was > 100 µM and the TGI [21] was > 100 µM. For the same molecule, the TGI [22] was > 100 µM, the TGI [23] was > 100 µM and the TGI [24] was > 100 µM. The TGI [25] was > 100 µM, the TGI [26] was > 100 µM and the TGI [27] was > 100 µM. For the same molecule, the TGI [28] was > 100 µM, the TGI [29] was > 100 µM and the TGI [30] was > 100 µM. For the same molecule, the TGI [31] was > 100 µM, the TGI [32] was > 100 µM and the TGI [33] was > 100 µM. The TGI [34] was > 100 µM, the TGI [35] was > 100 µM and the TGI [36] was > 100 µM. The TGI [37] was > 100 µM, the TGI [38] was > 100 µM and the TGI [39] was > 100 µM. For the same molecule, the TGI [40] was > 100 µM, the TGI [41] was > 100 µM and the TGI [42] was 84.7 µM. The TGI [43] was > 100 µM, the TGI [44] was > 100 µM and the TGI [45] was > 100 µM. For the same molecule, the TGI [46] was > 100 µM.
`CN(CCNC(=O)c1[nH]nc2c1ccc1ccccc12)CCNC(=O)c1[nH]nc2c1ccc1ccccc12` was tested, and the TGI [1] was 5.95 µM, the TGI [3] was 3.27 µM and the TGI [47] was 56.7 µM. The TGI [5] was 5.11 µM, the TGI [6] was 4.09 µM and the TGI [48] was 10.2 µM. For the same molecule, the TGI [49] was 5.03 µM, the TGI [8] was 3.71 µM and the TGI [9] was 6.26 µM. For the same molecule, the TGI [11] was 4.84 µM, the TGI [13] was 46.7 µM and the TGI [15] was 46.5 µM. It also gave a TGI [16] of 18.5 µM, a TGI [17] of 67.7 µM and a TGI [19] of 53.2 µM. It also gave a TGI [20] of 5 µM, a TGI [50] of 2.74 µM and a TGI [26] of 3.49 µM. For the same molecule, the TGI [28] was > 76.2 µM, the TGI [29] was 29.1 µM and the TGI [30] was 30.1 µM. For the same molecule, the TGI [31] was 3.33 µM, the TGI [32] was 6.8 µM and the TGI [51] was 37.9 µM. The TGI [36] was 5.3 µM, the TGI [39] was 3.61 µM and the TGI [52] was 3.9 µM. The TGI [40] was > 100 µM, the TGI [45] was 3.24 µM and the TGI [46] was 3.29 µM.
For `FC(F)(F)c1cc(Nc2ccc3c(OCCCN4CCOCC4)cccc3n2)ccc1Cl`, the GI50 [48] was 2.78 µM, the TGI [48] was > 100 µM and the GI50 [7] was 3.49 µM. For the same molecule, the TGI [7] was > 100 µM, the GI50 [8] was 2.36 µM and the TGI [8] was 6.24 µM. The GI50 [15] was 3.54 µM, the TGI [15] was > 100 µM and the GI50 [17] was 3.12 µM. The TGI [17] was 48.3 µM, the GI50 [18] was 2.05 µM and the TGI [18] was 4.16 µM. It also gave a GI50 [19] of 2.43 µM, a TGI [19] of 8.76 µM and a GI50 [53] of 1.69 µM. For the same molecule, the TGI [53] was 4.11 µM, the GI50 [21] was 1.9 µM and the TGI [21] was 4.01 µM. It also gave a GI50 [24] of 3.96 µM, a TGI [24] of 37.8 µM and a GI50 [25] of 1.89 µM. It also gave a TGI [25] of 6.2 µM, a GI50 [29] of 1.63 µM and a TGI [29] of 4.29 µM. The GI50 [32] was 2.26 µM, the TGI [32] was > 100 µM and the GI50 [33] was 3.07 µM. The TGI [33] was > 100 µM, the GI50 [54] was 2.07 µM and the TGI [54] was 4.55 µM. It also gave a GI50 [35] of 2.98 µM, a TGI [35] of 10.3 µM and a GI50 [38] of 4.33 µM. For the same molecule, the TGI [38] was > 100 µM, the GI50 [40] was 3.16 µM and the TGI [40] was > 100 µM. It also gave a GI50 [43] of 3.35 µM and a TGI [43] of 16.8 µM.
